Measurements published in PMC4172838 (Malaria Journal, 2014).

Tests used:
[1] = biological target: P-glycoprotein (P-gp/ABCB1) (Homo sapiens, UniProt P08183); assay: Vesicular transport assay, P-gp-mediated NMQ uptake in HEK293 membrane vesicles; conditions: for P-gp-mediated NMQ transport, percentage of solvent control: 100 μM compound, NMQ 7 nM radio-labelled + 90 nM unlabelled, solvent control = 100% transport
Protocol: (§1) Human P-gp, BCRP, BSEP and MRP1-4 had previously been cloned into the Gateway pDONR221 vector. […] Gateway cloning was used to transfer the genes into a VSV-G improved pFastBacDual vector for mammalian cell transduction. The production of baculovirus was executed according to the Invitrogen Bac-to-Bac manual.
(§2) HEK293 cells were grown to 40% confluency in Dulbecco’s modified Eagle’s medium-GlutaMAX-I containing 10% foetal calf serum at 5% CO2 in 500 cm^2 triple flasks. Culture medium was removed and 25 mL of medium combined with 10 mL virus was added and incubated at RT for 20 min, followed by the addition of another 40 mL of complete medium including 5 mM sodium butyrate to enhance protein expression.
(§3) Cells were harvested three days post transduction by a 5-min centrifugation step at 3,000 g. Cells were resuspended in ice-cold hypotonic buffer (0.5 mM sodium phosphate, 0.1 mM EDTA, pH 7.0) containing protease inhibitors ([…] phenylmethylsulfonyl fluoride, 5 mg/ml aprotinin, 5 mg/ml leupeptin, 1 mg/ml pepstatin and 1 mg/ml E-64) and shaken at 4°C for 30 min. This lysate was centrifuged 100,000 xg for 30 min at 4°C, after which the pellet was homogenized in ice-cold TS buffer (10 mM Tris-HEPES and 250 mM sucrose, pH 7.4) supplemented with protease inhibitors described before using a tight-fitting Dounce homogenizer for 25 strokes. Two subsequent centrifugation steps at 4°C of firstly 20 min at 4,000 g followed by supernatant centrifugation for 60 min at 100,000 g ensured harvesting of the membrane fraction. The pellet was resuspended in ice-cold protease free TS buffer and passed 25 times through a 27-gauge needle to enhance membrane vesicle formation. Protein concentration in these vesicles was determined using the Bio-Rad protein assay, vesicles were flash-frozen in N2 and stored at -80°C.
(§4) A rapid filtration technique that has been described earlier was applied to evaluate uptake of transporter specific substrates into the vesicles; NMQ for P-gp, E1S for BCRP, E217βG for MRP1-4 and TCA for BSEP [20]. Briefly, 0.015-0.15 μCi of labelled substrate was combined with unlabelled substrates to a concentration of 0.1-1 μM in a 30 μL reaction mixture with 4 mM ATP, 10 mM MgCl2 and 7.5 μg total protein membrane vesicles in TS buffer. Transport was allowed by transfer of the plates to 37°C during 1–5 min, a time-point within the linear phase of time-dependent transport, as previously determined. Hereafter, the reaction was rapidly stopped by placing the plates back on ice and the addition of 150 μL ice-cold TS buffer. Samples were subsequently transferred to a 96-well filter plate that had been pre-incubated with TS buffer, and filtered using a multiscreen HTS-vacuum manifold filtration device (Millipore). Filters were washed and extracted, after which 2 mL scintillation fluid was added to each filter. Radioactive signal on the filters was determined by liquid scintillation counting. Negative controls included eYFP-transduced vesicles and AMP instead of ATP in the reaction mixture.
In the first screen, all anti-malarial compounds were added to the reaction mixture to evaluate transport inhibition at a concentration of 100 μM. […] Results were depicted and statistically analysed using Graphpad Prism, version 5.03. IC50 values were determined by nonlinear regression analysis of (log) inhibitor-response curves with variable slope.

[2] = biological target: T1, breast cancer resistance protein (BCRP/ABCG2) (Homo sapiens, UniProt Q9UNQ0); assay: Vesicular transport assay, BCRP-mediated estrone sulphate uptake in HEK293 membrane vesicles; conditions: for BCRP-mediated estrone sulphate transport, percentage of solvent control: 100 μM compound, estrone sulphate 74 nM, solvent control = 100% transport
T1 sequence (Q9UNQ0 1-655): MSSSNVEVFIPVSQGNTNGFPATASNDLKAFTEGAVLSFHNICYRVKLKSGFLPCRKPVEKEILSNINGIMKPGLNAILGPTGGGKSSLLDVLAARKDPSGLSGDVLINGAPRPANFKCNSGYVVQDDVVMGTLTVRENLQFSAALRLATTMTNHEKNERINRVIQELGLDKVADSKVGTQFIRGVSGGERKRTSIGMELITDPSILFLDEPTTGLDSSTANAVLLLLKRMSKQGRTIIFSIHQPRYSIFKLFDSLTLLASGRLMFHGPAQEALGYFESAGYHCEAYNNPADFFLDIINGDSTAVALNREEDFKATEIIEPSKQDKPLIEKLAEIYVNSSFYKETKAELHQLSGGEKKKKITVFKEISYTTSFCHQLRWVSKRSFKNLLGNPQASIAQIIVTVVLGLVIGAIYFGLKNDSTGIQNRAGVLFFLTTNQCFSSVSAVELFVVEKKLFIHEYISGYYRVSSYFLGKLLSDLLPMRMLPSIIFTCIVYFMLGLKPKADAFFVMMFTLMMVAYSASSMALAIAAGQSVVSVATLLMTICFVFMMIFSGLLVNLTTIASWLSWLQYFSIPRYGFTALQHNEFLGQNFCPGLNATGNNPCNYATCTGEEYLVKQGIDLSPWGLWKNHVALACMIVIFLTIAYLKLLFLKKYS
Protocol: as §1, §2, §3, §4
In the first screen, all anti-malarial compounds were added to the reaction mixture to evaluate transport inhibition at a concentration of 100 μM. […] When ATP-dependent uptake was reduced more than 66.7%, the compound was considered a potential inhibitor, and multiple concentrations were tested in the reaction mixture to determine the IC50 value. All concentrations were tested in duplicates or triplicates in two individual biological replicates containing vesicles of independent transductions. Results were depicted and statistically analysed using Graphpad Prism, version 5.03. IC50 values were determined by nonlinear regression analysis of (log) inhibitor-response curves with variable slope.

[3] = tested on: T2, bile salt export pump (BSEP/ABCB11); assay: Vesicular transport assay, BSEP-mediated taurocholic acid uptake in HEK293 membrane vesicles; format: biochemical, human; conditions: 100 μM compound; taurocholic acid 1 μM; solvent control = 100% transport
T2 construct: made in house; host or cells: HEK293 cells transduced with baculovirus; isolated membrane vesicles
Protocol: Cells were harvested three days post transduction by a 5-min centrifugation step at 3,000 g. Cells were resuspended in ice-cold hypotonic buffer (0.5 mM sodium phosphate, 0.1 mM EDTA, pH 7.0) containing protease inhibitors (100 mM phenylmethylsulfonyl fluoride, 5 mg/ml aprotinin, 5 mg/ml leupeptin, 1 mg/ml pepstatin and 1 mg/ml E-64) and shaken at 4°C for 30 min. This lysate was centrifuged 100,000 xg for 30 min at 4°C, after which the pellet was homogenized in ice-cold TS buffer (10 mM Tris-HEPES and 250 mM sucrose, pH 7.4) supplemented with protease inhibitors described before using a tight-fitting Dounce homogenizer for 25 strokes. Two subsequent centrifugation steps at 4°C of firstly 20 min at 4,000 g followed by supernatant centrifugation for 60 min at 100,000 g ensured harvesting of the membrane fraction. The pellet was resuspended in ice-cold protease free TS buffer and passed 25 times through a 27-gauge needle to enhance membrane vesicle formation. Protein concentration in these vesicles was determined using the Bio-Rad protein assay, vesicles were flash-frozen in N2 and stored at -80°C.
A rapid filtration technique that has been described earlier was applied to evaluate uptake of transporter specific substrates into the vesicles; NMQ for P-gp, E1S for BCRP, E217βG for MRP1-4 and TCA for BSEP [20]. Briefly, 0.015-0.15 μCi of labelled substrate was combined with unlabelled substrates to a concentration of 0.1-1 μM in a 30 μL reaction mixture with 4 mM ATP, 10 mM MgCl2 and 7.5 μg total protein membrane vesicles in TS buffer. Transport was allowed by transfer of the plates to 37°C during 1–5 min, a time-point within the linear phase of time-dependent transport, as previously determined [15–19]. Hereafter, the reaction was rapidly stopped by placing the plates back on ice and the addition of 150 μL ice-cold TS buffer. Samples were subsequently transferred to a 96-well filter plate that had been pre-incubated with TS buffer, and filtered using a multiscreen HTS-vacuum manifold filtration device (Millipore). […] Radioactive signal on the filters was determined by liquid scintillation counting. […]
All concentrations were tested in duplicates or triplicates in two individual biological replicates containing vesicles of independent transductions. […] IC50 values were determined by nonlinear regression analysis of (log) inhibitor-response curves with variable slope. […]

[4] = tested on: T3, MRP3; assay: Vesicular transport assay, MRP3-mediated E217βG uptake in HEK293 membrane vesicles; format: biochemical, human; conditions: 100 μM compound; E217βG 150 nM; solvent control = 100% transport
T3 construct: made in house; host or cells: HEK293 cells transduced with baculovirus; isolated membrane vesicles
Excerpt: Some sequences did hold silent mutations of described polymorphisms.

[5] = tested on: T4, MRP1; assay: Vesicular transport assay, MRP1-mediated E217βG uptake in HEK293 membrane vesicles; format: biochemical, human; conditions: 100 μM compound; E217βG 150 nM; solvent control = 100% transport
T4 construct: made in house; host or cells: HEK293 cells transduced with baculovirus; isolated membrane vesicles
Protocol: as §1
(§5) HEK293 cells were grown to 40% confluency in Dulbecco’s modified Eagle’s medium-GlutaMAX-I containing 10% foetal calf serum at 5% CO2 in 500 cm^2 triple flasks. […]
(§6) Cells were harvested three days post transduction by a 5-min centrifugation step at 3,000 g. […] Protein concentration in these vesicles was determined using the Bio-Rad protein assay, vesicles were flash-frozen in N2 and stored at -80°C.
(§7) A rapid filtration technique that has been described earlier was applied to evaluate uptake of transporter specific substrates into the vesicles; NMQ for P-gp, E1S for BCRP, E217βG for MRP1-4 and TCA for BSEP [20]. […] Transport was allowed by transfer of the plates to 37°C during 1–5 min, a time-point within the linear phase of time-dependent transport, as previously determined. […] Radioactive signal on the filters was determined by liquid scintillation counting. […]
(§8) In the first screen, all anti-malarial compounds were added to the reaction mixture to evaluate transport inhibition at a concentration of 100 μM. […] Results were depicted and statistically analysed using Graphpad Prism, version 5.03. […]

[6] = design: method as in PMID 21600016; conditions: 12-hour measurement interval; co-administration with ATO/PG (250/100 mg) prophylaxis, one HIV patient; cited from earlier work
[7] = tested on: BCRP; conditions: cited from earlier work; for IC50: described as BCRP inhibitors, not substrates, read-out: IC50 of BCRP inhibition
[8] = tested on: T5, MRP2; assay: Vesicular transport assay, MRP2-mediated E217βG uptake in HEK293 membrane vesicles; format: biochemical, human; conditions: 100 μM compound; E217βG 150 nM; solvent control = 100% transport
T5 construct: made in house; host or cells: HEK293 cells transduced with baculovirus; isolated membrane vesicles
Protocol: as §1, §5, §6, §7, §8

[9] = cited from earlier work
[10] = daily prophylactic dose of 250 mg

Sequence of P-glycoprotein (P-gp/ABCB1) (P08183 whole entry): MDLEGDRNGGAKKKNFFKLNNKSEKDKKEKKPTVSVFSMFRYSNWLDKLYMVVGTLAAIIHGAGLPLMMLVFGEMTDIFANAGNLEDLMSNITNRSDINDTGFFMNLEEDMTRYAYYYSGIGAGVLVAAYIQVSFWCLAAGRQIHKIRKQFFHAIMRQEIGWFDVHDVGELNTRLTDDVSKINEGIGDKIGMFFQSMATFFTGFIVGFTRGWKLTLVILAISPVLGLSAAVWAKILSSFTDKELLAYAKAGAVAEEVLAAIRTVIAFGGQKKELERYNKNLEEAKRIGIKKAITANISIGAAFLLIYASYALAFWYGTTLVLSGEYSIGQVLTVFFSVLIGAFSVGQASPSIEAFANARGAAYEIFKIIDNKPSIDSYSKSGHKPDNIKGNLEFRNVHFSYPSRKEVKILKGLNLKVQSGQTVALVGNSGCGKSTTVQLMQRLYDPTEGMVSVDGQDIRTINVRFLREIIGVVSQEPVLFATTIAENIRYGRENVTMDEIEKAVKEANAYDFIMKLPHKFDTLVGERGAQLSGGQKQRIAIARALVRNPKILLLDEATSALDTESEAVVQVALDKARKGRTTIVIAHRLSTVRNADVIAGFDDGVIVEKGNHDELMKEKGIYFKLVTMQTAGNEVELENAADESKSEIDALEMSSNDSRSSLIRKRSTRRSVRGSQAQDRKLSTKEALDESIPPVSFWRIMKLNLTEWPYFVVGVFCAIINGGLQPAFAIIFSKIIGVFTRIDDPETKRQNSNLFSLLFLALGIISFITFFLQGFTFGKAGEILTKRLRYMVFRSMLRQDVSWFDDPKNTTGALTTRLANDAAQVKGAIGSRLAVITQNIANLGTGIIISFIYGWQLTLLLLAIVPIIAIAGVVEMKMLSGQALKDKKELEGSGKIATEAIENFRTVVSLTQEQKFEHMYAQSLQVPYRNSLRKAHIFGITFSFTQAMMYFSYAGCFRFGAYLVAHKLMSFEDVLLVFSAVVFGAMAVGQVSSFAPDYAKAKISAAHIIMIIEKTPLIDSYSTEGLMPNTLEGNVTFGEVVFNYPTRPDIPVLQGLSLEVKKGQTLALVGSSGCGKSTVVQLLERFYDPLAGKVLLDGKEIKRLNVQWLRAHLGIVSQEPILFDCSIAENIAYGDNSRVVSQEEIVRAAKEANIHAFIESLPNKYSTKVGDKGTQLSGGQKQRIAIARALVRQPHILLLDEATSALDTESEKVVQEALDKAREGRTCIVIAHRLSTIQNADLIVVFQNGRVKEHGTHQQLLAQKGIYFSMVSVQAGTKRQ

OC(c1cc(C(F)(F)F)nc2c(C(F)(F)F)cccc12)C1CCCCN1 (stereo not shown) [MQ, mefloquine]
IC50 [1]: 72 µM | P-gp-mediated NMQ transport, percentage of solvent control [1]: 30% | IC50 [2]: 18 µM | BCRP-mediated estrone sulphate transport, percentage of solvent control [2]: 8.5% | BSEP-mediated taurocholic acid transport, percentage of solvent control [3]: 72% | MRP3-mediated estradiol 17-β-D glucuronide transport, percentage of solvent control [4]: 70% | MRP1-mediated estradiol 17-β-D glucuronide transport, percentage of solvent control [5]: 50%

Cc1cc(C#N)cc(C)c1Oc1nc(Nc2ccc(C#N)cc2)nc(N)c1Br [etravirine]
Increase of AUC [6]: 55% | IC50 [7]: 1 µM

COC(=O)N[C@H](C(=O)N[C@@H](Cc1ccccc1)[C@@H](O)CN(Cc1ccc(-c2ccccn2)cc1)NC(=O)[C@@H](NC(=O)OC)C(C)(C)C)C(C)(C)C [atazinavir]
BCRP-mediated transport inhibition (in words) [7]: inhibitors of BCRP-mediated transport

maraviroc
BCRP inhibition (in words) [7]: do not inhibit BCRP

[H]/N=C(\N/C(=N/[H])Nc1ccc(Cl)cc1)NC(C)C [PG, proguanil]
P-gp-mediated NMQ transport, percentage of solvent control [1]: 76% | IC50 [2]: 118 µM | BCRP-mediated estrone sulphate transport, percentage of solvent control [2]: 36%

Cc1nnc(C(=O)NC(C)(C)c2nc(C(=O)NCc3ccc(F)cc3)c(O)c(=O)n2C)o1 [raltegravir]
BCRP inhibition (in words) [7]: do not inhibit BCRP

C[C@H]1[C@@H](O)O[C@@H]2O[C@@]3(C)CC[C@H]4[C@H](C)CC[C@@H]1[C@@]24OO3 [DHA, dihydroartemisinin]
P-gp-mediated NMQ transport, percentage of solvent control [1]: 112% | BCRP-mediated estrone sulphate transport, percentage of solvent control [2]: 70% | BSEP-mediated taurocholic acid transport, percentage of solvent control [3]: 114% | MRP3-mediated estradiol 17-β-D glucuronide transport, percentage of solvent control [4]: 121%

CCN(CC)CCCC(C)Nc1ccnc2cc(Cl)ccc12 (stereo not shown) [CQ, chloroquine]
P-gp-mediated NMQ transport, percentage of solvent control [1]: 50% | BCRP-mediated estrone sulphate transport, percentage of solvent control [2]: 69%

CCCCN(CCCC)CC(O)c1cc(Cl)cc2c1-c1ccc(Cl)cc1/C2=C/c1ccc(Cl)cc1 (stereo not shown) [L, lumefantrine]
BCRP-mediated estrone sulphate transport, percentage of solvent control [2]: 44%

C[C@@H]1CC[C@H]2[C@@H](C)C(=O)O[C@@H]3O[C@@]4(C)CC[C@@H]1[C@]32OO4 [ART, artemisinin]
MRP2-mediated estradiol 17-β-D glucuronide transport, percentage of solvent control [8]: 151% | BSEP-mediated taurocholic acid transport, percentage of solvent control [3]: 117% | MRP3-mediated estradiol 17-β-D glucuronide transport, percentage of solvent control [4]: 122%

O=C1C(O)=C([C@H]2CC[C@H](c3ccc(Cl)cc3)CC2)C(=O)c2ccccc21 [ATO, atovaquone]
IC50 [2]: 0.23 µM | BCRP-mediated estrone sulphate transport, percentage of solvent control [2]: 22% | MRP2-mediated estradiol 17-β-D glucuronide transport, percentage of solvent control [8]: 162% | BSEP-mediated taurocholic acid transport, percentage of solvent control [3]: 54% | MRP1-mediated estradiol 17-β-D glucuronide transport, percentage of solvent control [5]: 141% | Maximal blood plasma concentration [9, 10]: around 14 μM | Maximal blood plasma concentration, range [9, 10]: 8 to 26 µM

C=C[C@H]1C[N@@]2CC[C@H]1C[C@H]2[C@H](O)c1ccnc2ccc(OC)cc12 [Q, quinine]
Maximal plasma concentration ([9]; seven-day regimen of 10 mg/kg oral dose three times daily of quinine sulphate): 30 µM

CC(C)(C)NC(=O)[C@@H]1C[C@@H]2CCCC[C@@H]2CN1C[C@@H](O)[C@H](Cc1ccccc1)NC(=O)[C@H](CC(N)=O)NC(=O)c1ccc2ccccc2n1 [saquinavir]
Increase of AUC [6]: 274% | IC50 [7]: 19.5 µM

Cc1cccc(C)c1OCC(=O)N[C@@H](Cc1ccccc1)[C@@H](O)C[C@H](Cc1ccccc1)NC(=O)[C@H](C(C)C)N1CCCNC1=O [lopinavir]
BCRP-mediated transport inhibition (in words) [7]: inhibitors of BCRP-mediated transport

O=C1Nc2ccc(Cl)cc2[C@@](C#CC2CC2)(C(F)(F)F)O1 [efavirenz]
BCRP-mediated transport inhibition (in words) [7]: inhibitors of BCRP-mediated transport
